From patent US20250161419A1, “SERPIN PEPTIDES AND METHODS OF USING THE SAME” (SERPIN PHARMA, LLC, priority 2022, published 2025)

Legend:
[1] = system: MC903 induced atopic dermatitis and pruritis in mice; assay: MC903 (calcipotriol) induced AD-like inflammatory skin model, topical treatment: dermatitis score, ear volume, scratching; type: in vivo, mouse
Method: SP16 (in 70% ethanol) was applied topically to the ears on the days of the MC903 applications (MC903+SP16). Drug vehicle (70% EtOH) was applied to control animals (MC903) and normal control animals (NC) received EtOH in place of MC903. In-life parameters: Dermatitis score (FIG. 16A) and ear volume (FIG. 16B) measured on days 0, 3, 7, 9, 11 and 14. […] Clinical Dermatitis Score (score 0-4 for each parameter)-erythema, scale/dryness, edema, excoriation/erosion (total score 0-16).
Mice were treated with SP16 in 70% EtOH (MC903+SP16) or drug vehicle (MC903). Normal control (NC) mice were treated with EtOH only. Ears were measured for PAR2 protein expression through western blot analysis (quantitative analysis after normalization to beta-actin shown) (n=3-5). TSLP was measured in both the ears and serum by ELISA (N=3-5). Scratching was assessed over a 3 minute period after a 5-minute acclimatization period and the number of scratches are shown (n=3). IL-4 was measured in ear lysate via ELISA (N=3-5).

[2] = system: CCL26; assay: CCL26 release by esophageal epithelial cells (EPC2); type: cell-based, human
Method: FIG. 12A: Poly I:C-induced TSLP production by SPINK7 knockout EPC2 cells (Human esophageal epithelial cells). SPINK7 KO cells and control cells were plated in high calcium and high density, for 48 hours before being treated with SP16 or 7G and Poly I:C (5 μg/ml, or untreated) for 8 hours. TSLP production in the supernatant was measured by ELISA. FIG. 12B: primary esophageal epithelial cells (EPC2) were treated with SP16 and then stimulated with IL-13, a TH2 response mediated cytokine, to induce CCL26.
SP16 reduces several key cytokines involved in allergic responses. Upon knockout of SPINK7, esophageal epithelial cells release exacerbated levels of TSLP. TSLP is a key mediator of immune cell responses upon activation to an insult such as allergens.

[3] = system: eosinophil infiltration into the lungs of mice; assay: OVA-induced allergic inflammation model, eosinophils in BALF by flow cytometry; type: in vivo, mouse; settings: p=0.04
Method: FIG. 15A: mice were subjected to the OVA-challenge allergic inflammation model and treated with vehicle, SP16, or A1AT during the challenge phase. The BALF was collected and analyzed for the percent of eosinophils and compared to saline (non-challenged) mice, vehicle OVA induced mice, or SP16 treated OVA induced mice.
The impact of SP16 treatment on eosinophilic infiltration in mice was assessed using the OVA-induced allergic inflammation model. The number of eosinophils in the bronchoalveolar lavage fluid was quantified by flow cytometry.

[4] = system: IL-2; assay: OVA-challenge allergic inflammation model, IL-2 in BALF by ELISA; type: in vivo, mouse; settings: OVA-challenge in sensitized mice, treated during challenge phase, vs vehicle
Method: (§1) Mice were subjected to the OVA-challenge allergic inflammation model and treated with vehicle or SP16 during the challenge phase. The bronchoalveolar lavage fluid (BALF) was analyzed for cytokines via ELISA.
(§2) The ova-induced model of allergic inflammation is a widely used model of eosinophilic driven allergic diseases.

[5] = system: IL-1a; assay: OVA-challenge allergic inflammation model, IL-1a in BALF by ELISA; type: in vivo, mouse; settings: OVA-challenge in sensitized mice, treated during challenge phase, vs vehicle
Method: as §1, §2

[6] = system: phospho-ERK1/2; assay: Cell signaling analysis in PC12 cells, immunoblot of phospho-ERK1/2; type: cell-based, rat
Method: Cell signaling analysis: Rat PC12 cells were purchased from ATCC (CRL-1721). PC12 cells were maintained in high glucose DMEM (Gibco, USA) containing 10% heat-inactivated FBS (Gibco, USA), 5% HyClone heat-inactivated horse serum (Cytiva, USA), penicillin (100 units/ml) and streptomycin ([…]) in 6-well plates that were pre-coated with 0.01 mg/ml type IV collagen (Sigma-Aldrich, St. Louis, MO, USA). Cells were transferred to serum-free medium (SFM) 4 h prior to adding effectors, and then treated with SP163M (2.4, 24 or 240 nM); EI-tPA (12 nM), NGF (0.36 nM), or vehicle (PBS) for 10 min. In some cases, cells were pre-incubated with the competitive antagonist of LRP1, GST-RAP (150 nM) for 15 min or electroporated using the Rat Neuron Nucleofector Amaxa Kit (Lonza Biosciences) and incubated with siRNA to silence LRP1 expression (siLRP1; M-094191-01-0010, Dharmacon) for 48 h. Control cells were transfected with non-targeting control (NTC) siRNA (NTC; D-001810-10-05, Dharmacon). Cells were rinsed with ice-cold PBS and proteins were extracted in RIPA buffer (20 mM sodium phosphate, 150 mM NaCl, pH 7.4, 1% Triton X-100, 0.5% sodium deoxycholate, 0.1% SDS) supplemented with protease and phosphatase inhibitors (Roche Diagnostics, USA). After 30 min on ice, lysates were centrifuged at 15000×g for 5 min, supernatant collected and stored at −20° C. Equal amounts of protein from cell lysates (20 μg), as determined by BCA Protein Assay (ThermoFisher Scientific, Waltham, MA, USA), were subjected to 10% SDS-PAGE and electro-transferred to nitrocellulose membranes. The membranes were blocked with 5% nonfat dried milk and then incubated with primary anti-phospho-AKT (Cell Signaling Technology, Danvers, MA, USA; cat #9271S; 1:1000), anti-phospho-ERK1/2 (Cell Signaling Technology, Danvers, MA, USA; cat #9101S; 1:1000), anti-LRP1 (Cell Signaling Technology, Danvers, MA, USA; cat #64099S; 1:1000) or anti total-ERK1/2 (Cell Signaling Technology, Danvers, MA, USA; cat #91012S; 1:1000). Immunoblots were developed using Radiance, Radiance Q, and Radiance Plus chemiluminescent substrates and imaged using a BioRad ChemiDoc Imaging System (Bio-Rad, Hercules, CA, USA).

VKFNKPFVFLMIEQNTK (SP16 peptide core sequence including the LRP1 binding site; listed as Homo sapiens)
disease (dermatitis score, ear volume) ([1]; topical solution (1%) in 70% ethanol, 14-day period, vs vehicle-treated mice): significant improvement in disease vs. vehicle-treated mice
pruritis (number of scratches over 3 minutes) ([1]; topical, vs vehicle (MC903) treated mice): significantly reduces pruritis
CCL26 release (text: Poly 1:C mediated) ([2]; primary SPINK7 knockout esophageal cells): effective in significantly reducing Poly 1:C mediated TSLP and CCL26 release
CCL26 release induced by IL-13 ([2]; primary esophageal epithelial cells (EPC2), SP16 then IL-13): significantly reduced CCL26 release dose dependently
eosinophil infiltration into the lungs (eosinophils in BALF) [3]: reduces eosinophil infiltration into the lungs
IL-2 in BALF [4]: significantly reduces IL-2
IL-1a in BALF [5]: significantly reduces IL-1a
activation of ERK1/2 over time ([6]; 240 nM, 0-30 min): robustly activated ERK1/2 from 5 to 30 min
lowest concentration that activated phospho-ERK1/2 ([6]; 10 min, 0-240 nM): 24 nM
activation of ERK1/2 in cells transfected with NTC siRNA ([6]; 48 h after transfection): ERK1/2 was robustly activated
